Laboratory results: ChEMBL document CHEMBL4145533, “6,7-Dimorpholinoalkoxy quinazoline derivatives as potent EGFR inhibitors with enhanced antiproliferative activities against tumor cells” (Eur J Med Chem, 2018)
Activity calls are given as the source filed them. The calls are words filed in the database; no cut-off is given here.

Key:
A549 [1] = experiment: Cell cycle arrest in human A549 cells assessed as accumulation at G0/G1 phase at 2 uM after 48 hrs by propidium iodide satining based FACS analysis (reference value: 48.87%); format: functional
A549 [2] = experiment: Cell cycle arrest in human A549 cells assessed as accumulation at G2/M phase at 2 uM after 48 hrs by propidium iodide satining based FACS analysis (reference value: 16.09%); format: functional
A549 [3] = experiment: Induction of apoptosis in human A549 cells assessed as early apoptotic cells at 3 uM after 48 hrs by Annexin V-FITC/propidium iodide satining based FACS analysis (reference value: 2.78%); format: functional
HCC827 = experiment: Antiproliferative activity against human HCC827 cells harboring EGFR E746-A750 del mutant after 72 hrs by MTT assay; format: functional, cell-based; conditions: HCC827, 72 h
A549 [4] = experiment: Induction of apoptosis in human A549 cells assessed as late apoptotic cells at 3 uM after 48 hrs by Annexin V-FITC/propidium iodide satining based FACS analysis (reference value: 1.21%); format: functional
[5] = molecular target: T1, Epidermal growth factor receptor (Homo sapiens, UniProt P00533); conditions: A549, at 5 µM
T1 sequence (P00533 whole entry): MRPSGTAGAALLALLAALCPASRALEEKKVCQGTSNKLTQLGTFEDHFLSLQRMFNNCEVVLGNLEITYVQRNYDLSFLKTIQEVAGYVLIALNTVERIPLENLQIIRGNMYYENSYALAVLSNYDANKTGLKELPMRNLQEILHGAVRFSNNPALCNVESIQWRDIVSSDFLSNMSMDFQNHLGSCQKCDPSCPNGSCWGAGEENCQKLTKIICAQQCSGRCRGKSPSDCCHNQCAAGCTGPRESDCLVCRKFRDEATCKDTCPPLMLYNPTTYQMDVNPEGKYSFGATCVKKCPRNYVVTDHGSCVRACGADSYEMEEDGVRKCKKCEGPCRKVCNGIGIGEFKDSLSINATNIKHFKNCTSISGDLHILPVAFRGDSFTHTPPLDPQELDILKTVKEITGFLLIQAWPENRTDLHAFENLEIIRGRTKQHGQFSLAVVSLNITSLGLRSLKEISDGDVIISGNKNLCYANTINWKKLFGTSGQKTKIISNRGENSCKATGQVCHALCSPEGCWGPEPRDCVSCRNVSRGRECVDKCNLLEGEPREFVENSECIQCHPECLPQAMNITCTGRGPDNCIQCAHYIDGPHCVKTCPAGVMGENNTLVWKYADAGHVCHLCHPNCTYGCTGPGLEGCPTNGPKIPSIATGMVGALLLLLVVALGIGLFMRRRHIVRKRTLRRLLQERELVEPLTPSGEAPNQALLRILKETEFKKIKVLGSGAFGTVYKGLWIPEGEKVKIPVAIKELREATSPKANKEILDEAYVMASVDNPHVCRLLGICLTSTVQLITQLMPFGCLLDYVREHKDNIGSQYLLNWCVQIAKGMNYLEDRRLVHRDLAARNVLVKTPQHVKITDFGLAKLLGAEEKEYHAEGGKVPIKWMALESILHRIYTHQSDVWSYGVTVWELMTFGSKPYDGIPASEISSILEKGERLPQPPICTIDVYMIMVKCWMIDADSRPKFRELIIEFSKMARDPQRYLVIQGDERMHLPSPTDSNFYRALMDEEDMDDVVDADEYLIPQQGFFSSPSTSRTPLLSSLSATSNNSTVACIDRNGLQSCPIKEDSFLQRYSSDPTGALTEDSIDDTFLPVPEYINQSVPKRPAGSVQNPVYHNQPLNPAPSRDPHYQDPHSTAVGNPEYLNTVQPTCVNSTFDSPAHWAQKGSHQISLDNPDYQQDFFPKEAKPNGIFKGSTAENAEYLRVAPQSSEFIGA
Description: Inhibition of EGF-induced EGFR activation in human A549 cells assessed as reduction in ERK1/2 phosphorylation at T202/Y204 residues at 5 uM preincubated for 2 hrs followed by EGF stimulation measured after 10 mins by Western blot analysis

A549 [6] = experiment: Effect on total Erk1/2 protein expression in human A549 cells at 0.2 to 5 uM after 2 hrs by Western blot analysis; format: ADME, cell-based; conditions: a549, 2 h
A549 [7] = experiment: Cell cycle arrest in human A549 cells assessed as accumulation at G2/M phase at 0.5 uM after 48 hrs by propidium iodide satining based FACS analysis (reference value: 16.09%); format: functional
A549 [8] = experiment: Cell cycle arrest in human A549 cells after 48 hrs by propidium iodide satining based FACS analysis; format: functional
A549 [9] = experiment: Cell cycle arrest in human A549 cells assessed as accumulation at G0/G1 phase at 1 uM after 48 hrs by propidium iodide satining based FACS analysis (reference value: 48.87%); format: functional
[10] = system: Epidermal growth factor receptor (Homo sapiens), P00533 [L858R,T790M]; experiment: Inhibition of EGF-induced EGFR L858R/T790M double mutant phosphorylation at Y1068 residue in human NCI-H1975 cells preincubated for 2 hrs followed by EGF stimulation measured after 10 mins by Western blot analysis; format: cell-based
Epidermal growth factor receptor (Homo sapiens), P00533 [L858R,T790M], sequence (P00533 whole entry T790M/L858R, looked up): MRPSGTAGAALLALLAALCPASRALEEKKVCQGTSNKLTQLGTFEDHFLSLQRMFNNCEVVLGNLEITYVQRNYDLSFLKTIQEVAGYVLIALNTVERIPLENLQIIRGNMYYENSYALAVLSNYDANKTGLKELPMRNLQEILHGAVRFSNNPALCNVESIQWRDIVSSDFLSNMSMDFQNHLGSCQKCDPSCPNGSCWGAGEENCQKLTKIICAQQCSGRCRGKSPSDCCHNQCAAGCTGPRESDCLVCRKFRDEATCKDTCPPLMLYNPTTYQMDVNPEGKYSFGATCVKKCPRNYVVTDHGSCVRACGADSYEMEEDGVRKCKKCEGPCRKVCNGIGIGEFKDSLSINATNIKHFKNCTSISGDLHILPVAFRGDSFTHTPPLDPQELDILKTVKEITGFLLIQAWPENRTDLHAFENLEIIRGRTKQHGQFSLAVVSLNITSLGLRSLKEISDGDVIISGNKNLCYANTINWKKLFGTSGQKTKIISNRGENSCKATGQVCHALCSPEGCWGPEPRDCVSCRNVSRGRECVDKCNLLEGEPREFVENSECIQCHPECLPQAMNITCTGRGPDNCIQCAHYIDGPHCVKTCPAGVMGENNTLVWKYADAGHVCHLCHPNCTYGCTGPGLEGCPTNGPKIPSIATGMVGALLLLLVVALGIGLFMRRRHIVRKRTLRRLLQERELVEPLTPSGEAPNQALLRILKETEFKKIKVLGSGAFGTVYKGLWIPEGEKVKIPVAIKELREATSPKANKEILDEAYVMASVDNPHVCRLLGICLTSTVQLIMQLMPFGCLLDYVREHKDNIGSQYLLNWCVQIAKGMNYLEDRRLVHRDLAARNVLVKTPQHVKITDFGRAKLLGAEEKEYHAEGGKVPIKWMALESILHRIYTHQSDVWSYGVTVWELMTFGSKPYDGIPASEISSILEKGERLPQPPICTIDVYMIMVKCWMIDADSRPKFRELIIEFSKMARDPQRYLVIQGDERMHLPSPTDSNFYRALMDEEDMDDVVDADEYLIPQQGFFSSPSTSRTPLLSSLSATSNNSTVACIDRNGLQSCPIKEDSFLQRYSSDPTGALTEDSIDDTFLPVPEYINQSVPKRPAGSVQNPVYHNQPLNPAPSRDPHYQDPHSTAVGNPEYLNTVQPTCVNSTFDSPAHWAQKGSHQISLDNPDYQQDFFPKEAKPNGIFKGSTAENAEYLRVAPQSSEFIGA

NCI-H1975 = experiment: Antiproliferative activity against human NCI-H1975 cells harboring EGFR L858R/T790M double mutant after 72 hrs by MTT assay; format: functional, cell-based; conditions: NCI-H1975, 72 h
A549 [11] = experiment: Effect on total EGFR protein expression in human A549 cells at 0.2 to 5 uM after 2 hrs by Western blot analysis; format: ADME, cell-based; conditions: a549, 2 h
A549 [12] = experiment: Induction of apoptosis in human A549 cells assessed as late apoptotic cells at 1 uM after 48 hrs by Annexin V-FITC/propidium iodide satining based FACS analysis (reference value: 1.21%); format: functional
[13] = system: Epidermal growth factor receptor (Homo sapiens), P00533 [L858R,T790M]; experiment: Inhibition of EGF-induced EGFR L858R/T790M double mutant activation in human NCI-H1975 cells assessed as reduction in ERK1/2 phosphorylation at T202/Y204 residues at 5 uM preincubated for 2 hrs followed by EGF stimulation measured after 10 mins by Western blot analysis; format: cell-based
A549 [14] = experiment: Induction of apoptosis in human A549 cells assessed as viable cells at 3 uM after 48 hrs by Annexin V-FITC/propidium iodide satining based FACS analysis (reference value: 95.87%); format: functional; conditions: A549, 48 h, read-out: Activity
A549 [15] = experiment: Cell cycle arrest in human A549 cells assessed as accumulation at G2/M phase at 5 uM after 48 hrs by propidium iodide satining based FACS analysis (reference value: 16.09%); format: functional
A549 [16] = experiment: Induction of apoptosis in human A549 cells assessed as necrotic cells at 3 uM after 48 hrs by Annexin V-FITC/propidium iodide satining based FACS analysis (reference value: 0.14%); format: functional
[17] = system: Epidermal growth factor receptor (Homo sapiens), P00533 [L858R,T790M]; experiment: Inhibition of EGF-induced EGFR L858R/T790M double mutant phosphorylation at Tyrosine residue in human NCI-H1975 cells preincubated for 2 hrs followed by EGF stimulation measured after 10 mins by Western blot analysis; format: cell-based
[18] = molecular target: T1, Epidermal growth factor receptor; conditions: A549, at 5 µM; remark: listed apart in the source
Description: Inhibition of EGF-induced EGFR phosphorylation at Y1086 residue in human A549 cells at 5 uM preincubated for 2 hrs followed by EGF stimulation measured after 10 mins by Western blot analysis

[19] = system: Epidermal growth factor receptor (Homo sapiens), P00533 [L858R,T790M]; experiment: Inhibition of EGF-induced EGFR L858R/T790M double mutant phosphorylation at Y992 residue in human NCI-H1975 cells preincubated for 2 hrs followed by EGF stimulation measured after 10 mins by Western blot analysis; format: cell-based
A549 [20] = experiment: Effect on total Akt protein expression in human A549 cells at 0.2 to 5 uM after 2 hrs by Western blot analysis; format: ADME, cell-based; conditions: a549, 2 h
A-431 = experiment: Antiproliferative activity against human A431 cells harboring wild type EGFR after 72 hrs by MTT assay; format: functional, cell-based; conditions: A-431, 72 h
A549 [21] = experiment: Induction of apoptosis in human A549 cells assessed as early apoptotic cells at 2 uM after 48 hrs by Annexin V-FITC/propidium iodide satining based FACS analysis (reference value: 2.78%); format: functional
A549 [22] = experiment: Induction of apoptosis in human A549 cells assessed as necrotic cells at 4 uM after 48 hrs by Annexin V-FITC/propidium iodide satining based FACS analysis (reference value: 0.14%); format: functional
A549 [23] = experiment: Antiproliferative activity against human A549 cells harboring wild type EGFR/K-ras mutant after 72 hrs by MTT assay; format: functional, cell-based; conditions: A549, 72 h
[24] = molecular target: T1, Epidermal growth factor receptor; experiment: Inhibition of EGF-induced EGFR phosphorylation at Y1086 residue in human A549 cells at 0.2 uM preincubated for 2 hrs followed by EGF stimulation measured after 10 mins by Western blot analysis; format: cell-based

Question: `Fc1cccc(COc2ccc(Nc3ncnc4cc(OCCCN5CCOCC5)c(OCCCN5CCOCC5)cc34)cc2Cl)c1` was tested. Which Activity (A549 [1]) did it give?
Answer: 58.45%

Question: And the Activity (A549 [2])?
Answer: 10.56%

Question: What about the Activity (A549 [3]) of the same compound?
Answer: 8.52%

Question: And the IC50 (HCC827)?
Answer: 370 nM

Question: What about the Activity (A549 [4]) of the same compound?
Answer: 8.5%

Question: And the inhibition [5]?
Answer: Active

Question: And the Activity (A549 [6])?
Answer: Non-Toxic

Question: What about the Activity (A549 [7]) of the same compound?
Answer: 14.96%

Question: And the Activity (A549 [8])?
Answer: Dose-dependent effect

Question: What about the Activity (A549 [9]) of the same compound?
Answer: 52.91%

Question: What about the inhibition [10] of the same compound?
Answer: Dose-dependent effect

Question: What about the IC50 (NCI-H1975) of the same compound?
Answer: 4870 nM

Question: What about the Activity (A549 [11]) of the same compound?
Answer: Non-Toxic

Question: What about the Activity (A549 [12]) of the same compound?
Answer: 3.43%

Question: What about the inhibition [13] of the same compound?
Answer: Active

Question: And the viability at 3 µM (A549 [14])?
Answer: 82.8%

Question: What about the Activity (A549 [15]) of the same compound?
Answer: 8.8%

Question: And the Activity (A549 [16])?
Answer: 0.23%

Question: What about the inhibition [17] of the same compound?
Answer: Dose-dependent effect

Question: And the inhibition [18]?
Answer: Active

Question: And the inhibition [19]?
Answer: Dose-dependent effect

Question: What about the Activity (A549 [20]) of the same compound?
Answer: Non-Toxic

Question: And the IC50 (A-431)?
Answer: 1310 nM

Question: What about the Activity (A549 [21]) of the same compound?
Answer: 4.46%

Question: And the Activity (A549 [22])?
Answer: 0.57%

Question: And the IC50 (A549 [23])?
Answer: 1650 nM

Question: What about the inhibition [24] of the same compound?
Answer: Active
